# Measured values published in US11827917B1, “Methods for the conversion of fermentable sugars to ethanol” (Colorado State University Research Foundation, priority 2020, dated 2023).
# Entries after “also recorded” stand apart in the source; their conditions may differ. Marks after values point to notes of the source that are not given here.
# Key:
# Type in all cases: cell-based, Saccharomyces cerevisiae
# S. cerevisiae JAY 270 = assay: Screening of growth in 24-well plates on YPDA; conditions: for Cell growth score (colony size): YPDA, 30° C., 24 h
# Experimental: Procedure: An inoculum culture of S. cerevisiae JAY 270 was grown in 100 mL of yeast extract-peptone-dextrose (YPD) medium (10 g/L yeast extract, 20 g/L peptone, 20 g/L glucose) in 200-mL serum bottles overnight in a shaker at 30° C. and 200 rpm. The cells were collected by centrifuging 10 min at 4000×g and 4° C. To wash off the medium residue, the cell pellet was resuspended in 30 mL of sterile 0.8% (w/v) NaCl solution and centrifuged at 4000×g for 10 min. The cell pellet was washed twice. Finally, the cell pellet was resuspended and diluted in 0.8% (w/v) NaCl to achieve cell concentrations of OD600=0.02 and 0.2.
# The eight compounds were added in YPDA separately at 0.03%, 0.05%, 0.1%, and 0.2% (w/v). The standard control treatment contained only YPDA medium without addition of these compounds. Since the TrpOH and TyrOH stock solutions were dissolved in DMSO, the controls for those tests were YPDA with the same concentration of DMSO. A 3-mL aliquot of YPDA medium with or without the test compounds were loaded in each well of the 24-well plate.
# Ten μL of the prepared S. cerevisiae JAY 270 cell suspension at OD600=0.02 or 0.2 was loaded onto the YPDA medium in each well of the 24-well plates. Then the plates were sealed with Parafilm and incubated at 30° C. for 24 h. There were four biological replicates for each treatment.
# Yeast cell growth was evaluated by visual observation of the colony size in the well and scored as 0, +, ++, and +++.
# S. cerevisiae ATCC 26603 = assay: Serum-bottle cultivation in YPD, different yeast strains; conditions: 0.2%
# Experimental: (§1) Analytical methods: Cell growth was evaluated by monitoring OD600 and cell dry mass concentration. For dry mass measurements, 1.0 mL of culture was transferred to a pre-dried and pre-weighed 2-mL centrifuge tube. The tubes were centrifuged for 10 min at 14000 rpm using a microcentrifuge, and then the cell pellets were dried in an oven for 3 days at 65° C. The cell dry mass was determined by subtracting the initial tube mass from the dried mass of tube with cells. The concentrations of glucose, ethanol, and glycerol were measured via HPLC (Shimadzu LC20A series) outfitted with a refractive index detector and using an Aminex HPX-87H (300×7.8 mm) organic acid column and Cation H+ guard cartridge (Bio Rad Laboratories, Hercules, CA). The column was maintained at 65° C. and the mobile phase was 5 mM sulfuric acid with a flow rate of 0.6 mL/min. Standard compound solutions were used to calibrate the HPLC. Each sample was analyzed three times by HPLC.
# (§2) Procedure: Seven yeast strains (S. cerevisiae ATCC 26603, S. cerevisiae JAY 238, S. cerevisiae JAY 240, S. cerevisiae JAY 241, S. paradoxus JAY 1502, S. kudriavzezii JAY 1503, and S. mikatae JAY 1504) were pre-cultured in 30 mL of YPD medium in 100 mL serum bottle overnight in a shaker at 30° C. and 200 rpm. The precultured yeast cells of each strains were collected and washed twice. Finally, the cell pellet was resuspended in about 10 mL 0.8% (w/v) NaCl and the OD600 measured. TyrOH, PheOH, and TrpOH were added to 30 mL of YPD medium in 100-mL serum bottles at 0.2% (w/v) respectively. The same amount of DMSO was added in YPD medium and served as control to the TrpOH and TyrOH treatments. The prepared yeast cells were added to obtain the initial cell concentration at OD600=0.2. The serum bottles were sealed and cultured in a shaker at 30° C. and 200 rpm for 24 h. There were three biological replicates for each treatment.
# S. cerevisiae JAY 240 = assay: as above; conditions: 0.2%
# Experimental: as §1, §2
# S. cerevisiae JAY 238 = assay: as above; conditions: 0.2%
# Experimental: as §1, §2
# S. cerevisiae JAY 241 = assay: as above; conditions: 0.2%
# Experimental: as §1, §2
# [1] = S. cerevisiae ATCC 26603, YPD (Table 9B)
# [2] = S. cerevisiae JAY 240, YPD (Table 9B)
# [3] = S. cerevisiae JAY 238, YPD (Table 9B)
# [4] = S. cerevisiae JAY 241, YPD (Table 9B)
structure (smiles),measurement,setting,value
"OCCc1ccccc1 [PheOH, 2-phenylethanol]",Cell growth score (colony size),S. cerevisiae JAY 270; 0.03% (w/v),+++
same,Cell growth score (colony size),S. cerevisiae JAY 270; 0.05% (w/v),+++
same,Cell growth score (colony size),S. cerevisiae JAY 270; 0.10% (w/v),++
same,Cell growth score (colony size),S. cerevisiae JAY 270; 0.20% (w/v),+
same,Concentration at which cell growth was reduced in the plate assay,S. cerevisiae JAY 270; molar equivalent of the % w/v value,8.2 mM
same,Effect on cell growth in the plate assay (words),"S. cerevisiae JAY 270; tested concentrations, 24-well plates",inhibited growth; also recorded: reduced the growth
same,Biomass Yield,S. cerevisiae ATCC 26603; S. cerevisiae ATCC 26603,0.052 ± 0.001 g/g
same,Biomass yield % change vs. control,S. cerevisiae ATCC 26603; S. cerevisiae ATCC 26603,−22* %
same,EtOH yield,S. cerevisiae ATCC 26603; S. cerevisiae ATCC 26603,0.453 ± 0.006 g/g
same,EtOH yield % change vs. control,S. cerevisiae ATCC 26603; S. cerevisiae ATCC 26603,+1.2%
same,Glycerol yield,S. cerevisiae ATCC 26603; S. cerevisiae ATCC 26603,0.054 ± 0.001 g/g
same,Glycerol yield % change vs. control,S. cerevisiae ATCC 26603; S. cerevisiae ATCC 26603,−25* %
same,DCW,"S. cerevisiae ATCC 26603; S. cerevisiae ATCC 26603, YPD",1.40 mg
same,DCW Δ vs. ref,"S. cerevisiae ATCC 26603; S. cerevisiae ATCC 26603, YPD",76.4%
same,OD600,"S. cerevisiae ATCC 26603; S. cerevisiae ATCC 26603, YPD",1.27
same,OD600 Δ vs. ref,"S. cerevisiae ATCC 26603; S. cerevisiae ATCC 26603, YPD",85.6%
same,Biomass Yield,S. cerevisiae ATCC 26603; [1],0.052 + 0.001 g/g
same,Biomass yield Δ vs. ref,S. cerevisiae ATCC 26603; [1],−22.3%
same,Ethanol yield,S. cerevisiae ATCC 26603; [1],0.453 ± 0.006 g/g
same,Ethanol yield Δ vs. ref,S. cerevisiae ATCC 26603; [1],1.2%
same,Glycerol yield,S. cerevisiae ATCC 26603; [1],0.054 ± 0.001 g/g
same,Glycerol yield Δ vs. ref,S. cerevisiae ATCC 26603; [1],−25.07%
same,Biomass Yield,S. cerevisiae JAY 240; S. cerevisiae JAY 240,0.060 ± 0.000 g/g
same,Biomass yield % change vs. control,S. cerevisiae JAY 240; S. cerevisiae JAY 240,−19* %
same,EtOH yield,S. cerevisiae JAY 240; S. cerevisiae JAY 240,0.448 ± 0.018 g/g
same,EtOH yield % change vs. control,S. cerevisiae JAY 240; S. cerevisiae JAY 240,+8.2* %
same,Glycerol yield,S. cerevisiae JAY 240; S. cerevisiae JAY 240,0.038 ± 0.002 g/g
same,Glycerol yield % change vs. control,S. cerevisiae JAY 240; S. cerevisiae JAY 240,+2.2%
same,DCW,"S. cerevisiae JAY 240; S. cerevisiae JAY 240, YPD",2.20 mg
same,DCW Δ vs. ref,"S. cerevisiae JAY 240; S. cerevisiae JAY 240, YPD",78.6%
same,OD600,"S. cerevisiae JAY 240; S. cerevisiae JAY 240, YPD",1.89
same,OD600 Δ vs. ref,"S. cerevisiae JAY 240; S. cerevisiae JAY 240, YPD",72.2%
same,Biomass Yield,S. cerevisiae JAY 240; [2],0.060 + 0.000 g/g
same,Biomass yield Δ vs. ref,S. cerevisiae JAY 240; [2],−19.1%
same,Ethanol yield,S. cerevisiae JAY 240; [2],0.448 ± 0.018 g/g
same,Ethanol yield Δ vs. ref,S. cerevisiae JAY 240; [2],8.2%
same,Glycerol yield,S. cerevisiae JAY 240; [2],0.038 ± 0.002 g/g
same,Glycerol yield Δ vs. ref,S. cerevisiae JAY 240; [2],2.20%
same,Biomass Yield,S. cerevisiae JAY 238; S. cerevisiae JAY 238,0.059 ± 0.000 g/g
same,Biomass yield % change vs. control,S. cerevisiae JAY 238; S. cerevisiae JAY 238,−19* %
same,EtOH yield,S. cerevisiae JAY 238; S. cerevisiae JAY 238,0.472 ± 0.017 g/g
same,Glycerol yield,S. cerevisiae JAY 238; S. cerevisiae JAY 238,0.041 ± 0.002 g/g
same,Glycerol yield % change vs. control,S. cerevisiae JAY 238; S. cerevisiae JAY 238,−0.2%
same,DCW,"S. cerevisiae JAY 238; S. cerevisiae JAY 238, YPD",2.00 mg
same,DCW Δ vs. ref,"S. cerevisiae JAY 238; S. cerevisiae JAY 238, YPD",78.4%
same,OD600 Δ vs. ref,"S. cerevisiae JAY 238; S. cerevisiae JAY 238, YPD",65.9%
same,Biomass Yield,S. cerevisiae JAY 238; [3],0.059 + 0.000 g/g
same,Biomass yield Δ vs. ref,S. cerevisiae JAY 238; [3],−18.9%
same,Ethanol yield,S. cerevisiae JAY 238; [3],0.472 ± 0.017 g/g
same,Ethanol yield Δ vs. ref,S. cerevisiae JAY 238; [3],9.3%
same,Glycerol yield,S. cerevisiae JAY 238; [3],0.041 ± 0.002 g/g
same,Glycerol yield Δ vs. ref,S. cerevisiae JAY 238; [3],−0.22%
same,Biomass Yield,S. cerevisiae JAY 241; S. cerevisiae JAY 241,0.042 ± 0.001 g/g
same,Biomass yield % change vs. control,S. cerevisiae JAY 241; S. cerevisiae JAY 241,−28* %
same,EtOH yield,S. cerevisiae JAY 241; S. cerevisiae JAY 241,0.399 ± 0.003 g/g
same,Glycerol yield,S. cerevisiae JAY 241; S. cerevisiae JAY 241,0.037 ± 0.002 g/g
same,Glycerol yield % change vs. control,S. cerevisiae JAY 241; S. cerevisiae JAY 241,−31* %
same,DCW,"S. cerevisiae JAY 241; S. cerevisiae JAY 241, YPD",2.10 mg
same,DCW Δ vs. ref,"S. cerevisiae JAY 241; S. cerevisiae JAY 241, YPD",80.8%
same,OD600,"S. cerevisiae JAY 241; S. cerevisiae JAY 241, YPD",1.45
same,OD600 Δ vs. ref,"S. cerevisiae JAY 241; S. cerevisiae JAY 241, YPD",69.9%
same,Biomass Yield,S. cerevisiae JAY 241; [4],0.042 + 0.001 g/g
same,Biomass yield Δ vs. ref,S. cerevisiae JAY 241; [4],−27.9%
same,Ethanol yield,S. cerevisiae JAY 241; [4],0.399 ± 0.003 g/g
same,Ethanol yield Δ vs. ref,S. cerevisiae JAY 241; [4],0.4%
same,Glycerol yield,S. cerevisiae JAY 241; [4],0.037 ± 0.002 g/g
same,Glycerol yield Δ vs. ref,S. cerevisiae JAY 241; [4],−31.00%
